Entries after “also recorded” stand apart in the source; their conditions may differ. Where two headings read alike, the source gives them in different places.
Assays:
[1] = cited from earlier work
P. aeruginosa strain 762 = experiment: Effect of LCBs on P. aeruginosa growth in vitro (colony counts); assay type: cell-based, Pseudomonas aeruginosa; conditions: for inhibition of P. aeruginosa growth in vitro (in words): concentrations up to 50 μM
Experimental: P. aeruginosa strain 762 or ATCC 27853 were grown in LB medium at 37° C. until the early logarithmic phase (OD550 0.2). Bacteria were then diluted in PBS to a concentration of 5×10^3 CFU/ml. Stock solutions of sphingolipids (5 mM in 7.5% n-Octyl-β-D-Glucopyranoside (OGP) or in DMSO were prepared by sonication. Sphingolipids were added to the bacteria (0.1-50 μM in 0.075% OGP or 1% DMSO). Bacteria were incubated with sphingolipids for 2 hr at 37° C. and a sample of 200 μl bacteria solution were plated on LB agar plates, incubated overnight at 37° C. and colonies were counted.
The direct effect of sphingosine and other sphingoid long chain bases (LCBs) on the growth of P. aeruginosa was examined in vitro. Bacteria were incubated with a variety of LCBs and the EC50 values on bacterial growth were determined (Table 1).

[2] = tested on: P. aeruginosa strains 762, PA14 and ATCC 27853; experiment: Pulmonary P. aeruginosa infection of CF and CerS2 null mice, inhalation treatment (bacteria in lung, sickness score); assay type: in vivo, mouse; conditions: CF and CerS2 null mice; inhalation (125 μM) 1 h before or 1 h after intranasal infection with 1×10^8 CFU
Experimental: (A,B) The number of bacteria in the lungs and the overall sickness score (C,D) of WT, CerS2 null and CF mice 3-4 h after intranasal infection with 1×10^8 CFU of P. aeruginosa strains 762 (A,C) and CF mice with strains PA14 and ATCC 27853. Mice were inhaled with 0.9% NaCl or acid ceramidase 1 h prior (b.i.) to infection, or with sphingosine or FTY720 1 h before (b.i.) or 1 h after (a.i.) infection. Sickness score 4, severely affected (unresponsive animal); score 3 affected, (heavy breathing, low body temperature, ruffled fur) score 2, moderately affected (ruffled fur, heavy breathing); score 1, slightly affected (ruffled fur); score 0, unaffected (healthy appearance). Data are means±s.d., n=4.
Pulmonary infection of CF or CerS2 mice was achieved by intranasal application of P. aeruginosa strains 762, ATCC 27853 or PA14. Mice inhaled acid ceramidase, sphingosine, FTY720 or a combination of sphingosine and ceramide 1 hr before or after pulmonary infection. The number of bacteria in the lung was determined by culturing aliquots of lysed lungs on agar plates. Clinical symptoms of the infection were scored.
Inhalation was performed with a PARI Boy SX nebulizer (PARI GmbH, Starnberg, Germany). This nebulizer generates a fine aerosol mist by pumping the fluid with an air jet. The mice inhaled the aerosol via a mask that is part of an oral inhalation device for children (LL-Nebulizer); the mask was clipped at the sides to cover only the mouse's nose and the surrounding part of the face. […]
P. aeruginosa were grown for 14 to 14.5 h on fresh tryptic soy agar (TSA) plates (Becton Dickinson Biosciences, Germany). […] The bacterial OD was determined, and the bacteria were diluted in prewarmed H/S to a concentration of 1×10^8 CFU per 20 μL. […]
Lungs were removed, homogenised and lysed for 10 min in 5 mg/ml saponin to release intracellular bacteria. […] Bacterial counts (CFU) were counted after 18 h.

[3] = tested on: P. aeruginosa ATCC 27853 internalization into tracheal epithelial cells; experiment: Uptake of P. aeruginosa into tracheal epithelial cells with cytochalasin B; assay type: cell-based, mouse; conditions: 10 μM cytochalasin B; strain ATCC 27853; data not shown
[4] = Pseudomonas aeruginosa, 762, Table 3, Example 3, method of Example 2, n=3 for each analog, given as ranges, read-out: EC50
[5] = Pseudomonas aeruginosa, P. aeruginosa strain 762, 2 hrs at 37° C. in 0.075% OGP, colonies counted, at least 3 independent experiments, read-out: EC50 (μM) ± S.D.
[6] = Pseudomonas aeruginosa, Table 2 non-inhibitors, strain 762, up to 50 μM in 0.075% OGP, 2 hrs at 37° C., read-out: EC50

CCCC[C@@H](C)[C@@H](OC(=O)C[C@@H](CC(=O)O)C(=O)O)[C@H](C[C@@H](C)C[C@H](O)CCCC[C@@H](O)C[C@H](O)[C@H](C)N)OC(=O)C[C@@H](CC(=O)O)C(=O)O (stereo in doubt) [FB1, fumonisin B1, reference compound]
pKa (in PBS) ([1]; superscript reference mark): >9^4 | EC50 (P. aeruginosa strain 762; Pseudomonas aeruginosa, 762): > 50 µM | inhibition of P. aeruginosa growth in vitro (in words) (P. aeruginosa strain 762): without effect; also recorded: did not inhibit growth of the bacteria at all

CCCCCCCCCCCCC/C=C/[C@@H](O)[C@H](N)CO (stereo in doubt) [L-threo-sphingosine]
EC50 (P. aeruginosa strain 762; [4]): 0.5 to 1 µM | EC50 (P. aeruginosa strain 762; [5]): 0.6 ± 0.2 µM

CCCCCCCCCCCCC/C=C/[C@@H](O)CN [1-desoxymethyl sphingosine, 1-desoxymethylsphingosine]
EC50 (P. aeruginosa strain 762; [5]): 0.7 ± 0.1 µM

CCCCCCCCCCC/C=C/[C@H](O)[C@H](N)CO [D-erythro-C16-Sphingosine, D-erythro-C16-sphingosine]
EC50 (P. aeruginosa strain 762; [5]): 1 ± 0.2 µM

CCCCCCCCCCCCC/C=C/[C@H](O)[C@@H](N)CO [D-threo-sphingosine]
EC50 (P. aeruginosa strain 762; [5]): 0.6 ± 0.1 µM

CCCCCCCCCCCCC/C=C/[C@H](O)[C@H](N)CO[C@@H]1O[C@H](CO)[C@H](O)[C@H](O)[C@H]1O (stereo in doubt) [Galactosyl Sphingosine (Psychosine), Galactosyl D-erythro-sphingosine (psychosine)]
EC50 (P. aeruginosa strain 762; [4]): 1 to 5 µM | EC50 (P. aeruginosa strain 762; [5]): 2.2 ± 1.4 µM

CCCCCCCCCCCCC/C=C/[C@H](O)[C@H](N)COP(=O)(O)O (stereo in doubt) [Sphingosine-1-P, sphingosine-1-phosphate, reference compound]
EC50 (P. aeruginosa strain 762; [4]): > 50 µM | EC50 (P. aeruginosa strain 762; [6]): > 50 µM | inhibition of P. aeruginosa growth in vitro (in words) (P. aeruginosa strain 762): without effect | inhibition of P. aeruginosa growth in vitro (in words) (P. aeruginosa strain 762; listed as sphingosine-1-phosphate (S1P)): did not inhibit growth of the bacteria at all

CCCCCCCCCCCCCCC[C@H](O)[C@@H](C)N [1-deoxy-D-erythro-dihydrosphingosine]
EC50 (P. aeruginosa strain 762; [5]): 0.7 µM

CCCCCCCCCCCCC/C=C/[C@@H](O)[C@@H](N)CO [L-erythro-sphingosine]
EC50 (P. aeruginosa strain 762; [5]): 0.8 ± 0.1 µM

CCCC[C@@H](C)[C@@H](OC(=O)C[C@@H](CC(=O)O)C(=O)O)[C@H](C[C@@H](C)C[C@H](O)CCCC[C@@H](O)C[C@H](O)[C@H](C)N)OC(=O)C[C@@H](CC(=O)O)C(=O)O [FB1, fumonisin B1, reference compound]
EC50 (P. aeruginosa strain 762; Pseudomonas aeruginosa, 762, 2 h): > 50 µM

CCCCCCCCc1ccc(CCC(N)(CO)CO)cc1 [FTY720, 2-amino-2-[2-(4-octylphenyl)ethyl]propane-1,3-diol]
pK (in PBS) ([1]; superscript reference marks): 7.8^3 | protection from pulmonary P. aeruginosa infection [2]: completely protected CF and CerS2 null mice from P. aeruginosa infection and even eliminated an existing infection; also recorded: potent inhibitor in vivo; also recorded: rescue CF and CerS2 null mice from pulmonary P. aeruginosa infection; also recorded: prevents pulmonary P. aeruginosa infection | EC50 (P. aeruginosa strain 762; [4]): 1 to 5 µM | EC50 (P. aeruginosa strain 762; [5]): 1.9 µM

CCCCCCCCCCCCC/C=C/C[C@H](N)CO [3-deoxy-D-erythro-sphingosine]
EC50 (P. aeruginosa strain 762; [5]): 0.5 µM

CCCCCCCCCCCCC/C=C/[C@@H](O)[C@H](CO)NC [Monomethyl D-erythro-Sphingosine, Monomethyl D-erythro-sphingosine]
EC50 (P. aeruginosa strain 762; [5]): 1.9 ± 0.1 µM

CCCCCCCCCCCCCCC[C@@H](O)[C@H](N)CO (stereo in doubt) [L-threo-dihydrosphingosine (Safingol), L-threo-dihydrosphingosine (L-threo-sphinganine)]
EC50 (P. aeruginosa strain 762; [4]): 0.5 to 1 µM | EC50 (P. aeruginosa strain 762; [5]): 0.4 µM | inhibition of P. aeruginosa growth in vitro (in words) (P. aeruginosa strain 762; listed as L-threo-dihydrosphingosine): inhibits as well as the natural occurring D-erythro enantiomer | inhibition of P. aeruginosa growth in vitro (in words) (P. aeruginosa strain 762; listed as L-threo-sphinganine): more potent than the neutral ones

CCCCCCCCCCCCCCC[C@@H](O)[C@H](CO)NC(C)=O [N-acetyl-D-erythro-dihydrosphingosine]
EC50 (P. aeruginosa strain 762; [6]): > 50 µM | inhibition of P. aeruginosa growth in vitro (in words) (P. aeruginosa strain 762): reduces the activity

CCCCCCCCC/C=C/[C@H](O)[C@H](N)CO [D-erythro-C14-Sphingosine]
EC50 (P. aeruginosa strain 762; [6]): > 50 µM

CCCCCCCCCCCCCCC[C@@H](O)[C@@H](N)CO [L-erythro-dihydrosphingosine, L-erythro-dihydrosphingosine (L-erythro-sphinganine)]
EC50 (P. aeruginosa strain 762; [5]): 0.8 ± 0.1 µM

C=C1[C@@H](C)[C@H]2[C@H](Cc3ccccc3)NC(=O)[C@]23OC(=O)/C=C/[C@H](O)CCC[C@@H](C)C/C=C/[C@H]3[C@@H]1O [cytochalasin B]
internalization of P. aeruginosa into tracheal epithelial cells [3]: prevented internalization

CCCCCCCCCCCCCCC/C=C/[C@H](O)[C@H](N)CO [D-erythro-C20-Sphingosine, D-erythro-C20-sphingosine]
EC50 (P. aeruginosa strain 762; [5]): 0.3 µM | inhibition of P. aeruginosa growth in vitro (in words) (P. aeruginosa strain 762): more potent than C18-sphingosine

CCCCCCCCCCCCCCC[C@H](O)[C@@H](N)CO [D-threo-dihydrosphingosine, D-threo-dihydrosphingosine (D-threo-sphinganine)]
EC50 (P. aeruginosa strain 762; [5]): 0.5 ± 0.1 µM

CCCCCCCCCCCCCCC[C@@H](O)[C@@H](N)CO [D-erythro-dihydrosphingosine, (2S,3R)-2-aminooctadecane-1,3-diol]
EC50 (P. aeruginosa strain 762; [4]): 0.5 to 1 µM | EC50 (P. aeruginosa strain 762; [5]): 0.6 ± 0.5 µM

CCCCCCCCc1ccc(CC[C@](N)(CO)CCP(=O)(O)O)cc1 [(R)-FTY-phosphonate]
EC50 (P. aeruginosa strain 762; [4]): 5 to 50 µM

CCCCCCCCCCCCCC[C@@H](O)[C@@H](O)[C@@H](N)CO [Phyto-sphingosine, 4-D-hydroxysphinganine (phytosphingosine)]
EC50 (P. aeruginosa strain 762; [5]): 0.9 µM | category as bacterial growth inhibitor (P. aeruginosa strain 762; classes by EC50): strong inhibitor

CCCCCCCCCCCCC/C=C/[C@H](O)[C@@H](C)N [1-deoxy-D-erythro-sphingosine]
EC50 (P. aeruginosa strain 762; [5]): 0.9 ± 0.1 µM

CCCCCCC/C=C/[C@@H](O)[C@@H](N)CO [D-erythro-C12-Sphingosine]
EC50 (P. aeruginosa strain 762; [6]): > 50 µM
